# Patent US20110020362A1, “Adrenergic stimulation mediates hypersensitivity by inducing nerve growth factor expression” (priority 2009, published 2011)
# “Also recorded” adds a separate entry of the source.
# Experiments:
# [1] = test system: rats subjected to heterotypic chronic stress; test: Viscero-motor response (VMR) to graded colorectal distension after nine-day heterotypic chronic stress; type: in vivo, rat; conditions: for heterotypic chronic stress-induced increase in viscero-motor response to colorectal distension: entire nine-day HeCS, post-HeCS vs baseline
# Experimental: Two electrodes were implanted under general 2% isofluorane anesthesia in the external oblique abdominal muscle and exteriorized in the subscapular region. Rats were allowed one week to recover from surgery. Under 2% isofluoruthane anesthesia, a 5 cm long balloon constructed from a surgical glove finger and attached to tygon tubing was inserted 7 cm into the descending colon and rectum. Rats were placed in small Lucite cubicles (20×8×8 cm) and allowed to adapt for 30 minutes. colorectal distension was performed by rapidly inflating the balloon to constant pressures: 20, 30, 40, 50, 60 & 80 mm Hg, for 20 seconds followed by 2-minute rest. Electromygraphic (EMG) activity from the external oblique muscle was recorded on Biopac equipment (Biopac Systmes, Inc., Santa Barbara, Calif.). The EMG signal was amplified, filtered at 300 Hz and digitized. The area under the curve (AUC) for the EMG signal during each 20 seconds of distention was calculated using Acknowledge software (Biopac Systmes, Inc). The net value for each distension period was calculated by subtracting the baseline value derived from the average AUC for 20 seconds before and 20 seconds after the distention period.
# (§1) A catheter (ReCathco) was inserted through the occipital membrane onto the top of the spinal cord. The end of the catheter rested at about L1. After measurement of baseline response to colorectal distension, the catheter was primed with the appropriate solution and connected to subcutaneously implanted osmotic pump (Durect Corporation, Cupertino, Calif.) filled with appropriate solution. The pump delivered a constant infusion of 0.93 μL/hour for 10.6 days. K252a, a non-specific antagonist of tyrosine kinase receptors (trk) including the high affinity trkA receptors (11), was dissolved in DMSO and administered in sterile saline containing 10% DMSO at a concentration of 0.067 mg/mL. Each rat received an initial bolus infusion of 0.67 μg followed by 1.5 μg/day from the osmotic pump. Previously validated anti-sense and missense oligonucleotides were used (12), TrkA antisense: […] (SEQ ID NO: 1) and mismatch: […] (SEQ ID NO: 2). Oligos were HPLC purified and purchased from Invitrogen. Rats received an initial bolus dose of 10 nmole in 10 uL. The catheter was attached to the pump, which delivered oligo at a rate of 0.5 nmole/hour. Stress protocol started 24-hours after attachment of the pump. Nerve growth factor neutralizing antibody (16 μg/kg i.p. in 0.5) was purchased from R&D systems (Minneapolis, Minn.) and reconstituted in phosphate buffered saline (PBS). Control rats received PBS containing an equal concentration of goat non-immune serum.
# [2] = test system: TL colon dorsal root ganglia neurons; test: Patch-clamp electrophysiology of DiI-labeled colon-specific TL dorsal root ganglia neurons from treated rats; type: in vivo, rat
# Experimental: The lipid soluble fluorescent dye 1,1′dioleyl-3,3,3′,3′-tetramethylindocarbocyanine methanesulfonate (DiI-I), 25 mg in 0.5 mL methanol, was injected in 2 μL volumes at eight to ten sites in distal colon wall starting at the pelvic girdle and moving toward the cecum. TL dorsal root ganglia neurons were isolated from dorsal root ganglia T13, L1 and L2 were dissected out and put in an ice-cold, oxygenated dissecting solution, containing (in mM): 130 NaCI, 5 KCI, 2 KH2PO4, 1.5 CaCl2, 6 MgSO4, glucose, and 10 HEPES, pH 7.2 (osmolarity, 305 mOsm), as described (10). Connective tissue free ganglia were transferred to a 10 ml dissecting solution containing collagenase D (1.8 mg/mL, Roche) and trypsin (1.0 mg/mL; Sigma, St. Louis, Mo.), and incubated for 1.5 hours at 34.5° C. DRGs are then taken from the enzyme solution, washed, and put in 2 mL of the dissecting solution containing DNase (0.5 mg/mL; Sigma). Cells were subsequently dissociated by trituration with fire-polished glass pipettes and placed on acid-cleaned glass cover slips. Dorsal root ganglia neurons containing the retrograde label were identified as bright red neurons using fluorescent microscopy with a rhodamine filter (excitation 546, barrier filter at 580) and Hoffman contrast optics. For current clamp experiment, cells were superfused (1.5 mL/min) at room temperature with control external solution containing (in mM): 130 NaCI, 5 KCI, 2 KH2PO4, 2.5 CaCl2, 1 MgCl2, 10 HEPES, and 10 glucose, pH adjusted to 7.4 with NaOH (295-300 mOsm). Recording pipettes pulled from borosilicate glass tubing had resistance of 1-4 MΩ. For perforated patch recording, pipette tip was initially filled with amphotericin-free pipette solution, containing (in mM): 100 KmeSO3, 40 KCI, and 10 HEPES, pH 7.25 adjusted with KOH (osmolarity, 290 mOsm). The pipette was then backfilled with same pipette solution containing amphotericin B (300 μg/ml). Whole cell currents and voltage were recorded with Dagan 3911 patch clamp amplifier; and data were acquired and analyzed by pCLAMP 9.2 (Axon Instruments). The currents were filtered at 2-5 kHz and sampled at 50 or 100 μsec per point.
# as §1
# [3] = test system: mucosal afferent mechanoreceptors; conditions: IBS patients; cited from earlier work
# nerve growth factor = test: Nerve growth factor expression in distal colon tissue strips incubated in vitro with norepinephrine; type: cell-based, rat
# Experimental: The distal colon, about 6 cm long was opened along the mesentery and dissected free of mucosa/submucosa and submucosal plexus. Tissues were either snap frozen in liquid nitrogen or washed in Hanks balanced salt solution and incubated in DME+10% fetal calf serum+penicillin/streptomycin containing norepinephrine for 24-hours. Tissue was homogenized in PBS+protease inhibitor cocktail purchased from Sigma and centrifuged at 13,000 g for 10 minutes. Nerve growth factor protein was measured by ELISA from R&D Systems (Minneapolis, Minn.).
# [4] = test system: TL colon dorsal root ganglia neurons; test: Electrophysiology of TL colon dorsal root ganglia neurons incubated in vitro with nerve growth factor; type: cell-based, rat; conditions: 24 hours in vitro, high (250 ng/mL) vs low (2.5 ng/mL)
# Experimental: The lipid soluble fluorescent dye 1,1′dioleyl-3,3,3′,3′-tetramethylindocarbocyanine methanesulfonate (DiI-I), 25 mg in 0.5 mL methanol, was injected in 2 μL volumes at eight to ten sites in distal colon wall starting at the pelvic girdle and moving toward the cecum. TL dorsal root ganglia neurons were isolated from dorsal root ganglia T13, L1 and L2 were dissected out and put in an ice-cold, oxygenated dissecting solution, containing (in mM): 130 NaCI, 5 KCI, 2 KH2PO4, 1.5 CaCl2, 6 MgSO4, glucose, and 10 HEPES, pH 7.2 (osmolarity, 305 mOsm), as described (10). Connective tissue free ganglia were transferred to a 10 ml dissecting solution containing collagenase D (1.8 mg/mL, Roche) and trypsin (1.0 mg/mL; Sigma, St. Louis, Mo.), and incubated for 1.5 hours at 34.5° C. DRGs are then taken from the enzyme solution, washed, and put in 2 mL of the dissecting solution containing DNase (0.5 mg/mL; Sigma). Cells were subsequently dissociated by trituration with fire-polished glass pipettes and placed on acid-cleaned glass cover slips. […] Whole cell currents and voltage were recorded with Dagan 3911 patch clamp amplifier; and data were acquired and analyzed by pCLAMP 9.2 (Axon Instruments). […]
# [5] = exogenous administration; cited from earlier work
# trkA = test: Western blot of trkA expression in dorsal root ganglia after intrathecal oligonucleotide; type: in vivo, rat
# Experimental: as §1
# [6] = HeCS rats, intrathecal application
# [7] = in vitro incubation for 24 hours
# [8] = HeCS rats, 200 μg/kg intraluminal in distal colon one day before HeCS
# [9] = sham stressed rats, 200 μg/kg intraluminal in distal colon
# [10] = intrathecal oligonucleotide, bolus 10 nmole then 0.5 nmole/hour
compound,measurement,setting,value
"COC(=O)[C@@]1(O)C[C@H]2O[C@]1(C)n1c3ccccc3c3c4c(c5c6ccccc6n2c5c31)C(=O)NC4 [k252a, K252a]",heterotypic chronic stress-induced increase in viscero-motor response to colorectal distension,"[1]; intrathecal osmotic pump, bolus 0.67 μg then 1.5 μg/day",no significant difference
same,heterotypic chronic stress-induced increase in viscero-motor response to colorectal distension,"[1]; intrathecal osmotic pump, bolus 0.67 μg then 1.5 μg/day, listed as k252A",suppressed
same,HeCS-induced decrease in rheobase,[2]; [6],significantly attenuated
same,HeCS-induced depolarization of resting membrane potential,[2]; [6],significantly attenuated
same,HeCS-induced increase in the number of action potentials at 2× rheobase,[2]; [6],significantly attenuated
same,HeCS-induced increase in excitability of TL colon dorsal root ganglia neurons,"[2]; HeCS rats, intrathecal treatment",blocked
CCN(CC)CC(=O)Nc1c(C)cccc1C [lidocaine],pain-perception to rapid balloon distension,[3],does not affect
same,sensory perception to slow distension,[3],blocks
NC[C@H](O)c1ccc(O)c(O)c1 [norepinephrine],expression of nerve growth factor in mucosa/submucosa,nerve growth factor; [7],concentration-dependently increased
same,expression of nerve growth factor in muscularis externa/serosa,nerve growth factor; [7],concentration-dependently increased
C=C(C)[C@]12C[C@@H](C)[C@@]34O[C@](Cc5ccccc5)(O[C@@H]1[C@@H]3C=C(COC(=O)Cc1ccc(O)c(OC)c1)C[C@]1(O)C(=O)C(C)=C[C@@H]41)O2 [resiniferatoxin],induction of visceral hypersensitivity to colorectal distension,"[1]; desensitization of afferent nerve endings, 200 μg/kg intraluminal in distal colon one day before HeCS",blocked the induction of visceral hypersensitivity
same,HeCS-induced increase in the number of action potentials at 2× rheobase,[2]; [8],significantly blocked
same,HeCS-induced reduction in rheobase,[2]; [8],significantly blocked
same,resting membrane potential,[2]; [9],no significant effect
same,rheobase,[2]; [9],no significant effect
"MM oligonucleotide: mismatch control oligonucleotide: CAACATCGAAGTGACGAGACCG (SEQ ID NO: 2) (listed as DNA, chemistry not given here)",heterotypic chronic stress-induced increase in viscero-motor response to colorectal distension,[1]; [10],significant increase
astressin,norepinephrine-induced expression of nerve growth factor in mucosa/submucosa,"nerve growth factor; in vitro, with norepinephrine",blocked this increase; also recorded: blocked this effect
same,norepinephrine-induced expression of nerve growth factor in muscularis externa/serosa,"nerve growth factor; in vitro, with norepinephrine",had no effect; also recorded: no significant effect
"nerve growth factor: neurotrophin, nerve growth factor (NGF), applied to neurons in vitro at 250 or 2.5 ng/mL",resting membrane potential,[4],significant decline
same,rheobase,[4],significant decline
same,inflammatory hyperalgesia,[5],mimics inflammatory hyperalgesia
"trkA AS oligonucleotide: TrkA antisense: CATCAACGAAGTCACCAGACCG (SEQ ID NO: 1), previously validated, HPLC purified, from Invitrogen (listed as DNA, chemistry not given here)",heterotypic chronic stress-induced increase in viscero-motor response to colorectal distension,[1]; [10],no significant difference
same,heterotypic chronic stress-induced increase in viscero-motor response to colorectal distension,"[1]; intrathecal oligonucleotide, bolus 10 nmole then 0.5 nmole/hour, listed as anti-sense ODN",suppressed
same,"expression of trkA in TL dorsal root ganglia, relative to rats treated with MM oligonucleotide","trkA; intrathecal, catheter tip at about L1",about 50%
same,trkA levels in LS DRG,"trkA; several segments caudal to the catheter tip, vs MM oligonucleotide",No significant difference
same,trkA levels in thoracic dorsal root ganglion,"trkA; several segments rostral to the catheter tip, vs MM oligonucleotide",No significant difference
